In ChEMBL document CHEMBL5113538, “Discovery of Novel Allosteric EGFR L858R Inhibitors for the Treatment of Non-Small-Cell Lung Cancer as a Single Agent or in Combination with Osimertinib” (J Med Chem, 2022):

Assays:
NCI-H1975 = test: Antitumor activity against human NCI-H1975 cells harboring EGFR L858R/T790M mutant xenografted in Balb/c nude mouse assessed as in tumor growth inhibition at 10 mg/kg, po administered twice daily measured after 14 days; type: functional; details: NCI-H1975, 336 h, time 14 day, read-out: TGI
[1] = molecular target: Epidermal growth factor receptor (Homo sapiens, UniProt P00533, C797S/L858R/T790M)
D(2) dopamine receptor = D(2) dopamine receptor (Homo sapiens, UniProt P14416); test: Inhibition of dopamine D2 receptor (unknown origin) at 10 uM relative to control
[2] = molecular target: Epidermal growth factor receptor (Homo sapiens, UniProt P00533, C797S/L858R)
[3] = Toxicity in Balb/c nude mouse allografted with mouse BaF3 cells harboring EGFR L858R/C797S mutant assessed as change in body weight at 10 mg/kg, po administered twice daily for 20 days; type: organism-based; details: in vivo, 480 h, time 20 day
[4] = molecular target: T1, Adenosine receptor A3 (Homo sapiens) (UniProt P0DMS8); test: Inhibition of adenosine A3 receptor (unknown origin) at 10 uM relative to control
T1 sequence (whole entry): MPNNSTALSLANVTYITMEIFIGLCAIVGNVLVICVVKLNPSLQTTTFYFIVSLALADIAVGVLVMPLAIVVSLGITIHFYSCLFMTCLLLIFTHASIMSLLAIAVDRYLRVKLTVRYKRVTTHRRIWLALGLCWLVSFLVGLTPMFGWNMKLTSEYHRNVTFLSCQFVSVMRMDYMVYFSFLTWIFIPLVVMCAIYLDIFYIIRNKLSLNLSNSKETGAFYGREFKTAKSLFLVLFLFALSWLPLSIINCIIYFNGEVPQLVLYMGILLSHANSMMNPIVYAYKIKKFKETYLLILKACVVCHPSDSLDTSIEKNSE

[5] = Oral bioavailability in CD1 mouse at 10 mg/kg administered as single dose measured after 24 hrs by LC-MS/MS analysis; type: ADME, organism-based; details: in vivo
SU-DHL-6 = test: Antiproliferative activity against human SU-DHL-6 cells assessed as cell growth inhibition; type: functional
[6] = AUC(0 to t) in CD1 mouse at 1 mg/kg, iv administered as single dose measured after 24 hrs by LC-MS/MS analysis; type: ADME, organism-based; set-up: time 24 hrs, dose 1 mg/kg, route iv; details: in vivo
[7] = Terminal half life in CD1 mouse at 1 mg/kg, iv administered as single dose measured after 24 hrs by LC-MS/MS analysis; type: ADME, organism-based; details: in vivo, read-out: beta t1/2 (converted)
[8] = Cmax in CD1 mouse at 10 mg/kg, po administered as single dose measured after 24 hrs by LC-MS/MS analysis; type: ADME, organism-based; set-up: dose 10 mg/kg, time 24 hrs, route po; details: in vivo
BaF3 = test: Antitumor activity against mouse BaF3 cells harboring EGFR L858R/C797S mutant allografted in Balb/c nude mouse assessed as in tumor growth inhibition at 10 mg/kg, po administered twice daily measured after 6 days; type: functional; details: BaF3, 144 h, time 6 day, read-out: TGI
[9] = AUC (0 to infinity) in CD1 mouse at 1 mg/kg, iv administered as single dose measured after 24 hrs by LC-MS/MS analysis; type: ADME, organism-based; set-up: time 24 hrs, dose 1 mg/kg, route iv; details: in vivo

Sequence of D(2) dopamine receptor (P14416 whole entry): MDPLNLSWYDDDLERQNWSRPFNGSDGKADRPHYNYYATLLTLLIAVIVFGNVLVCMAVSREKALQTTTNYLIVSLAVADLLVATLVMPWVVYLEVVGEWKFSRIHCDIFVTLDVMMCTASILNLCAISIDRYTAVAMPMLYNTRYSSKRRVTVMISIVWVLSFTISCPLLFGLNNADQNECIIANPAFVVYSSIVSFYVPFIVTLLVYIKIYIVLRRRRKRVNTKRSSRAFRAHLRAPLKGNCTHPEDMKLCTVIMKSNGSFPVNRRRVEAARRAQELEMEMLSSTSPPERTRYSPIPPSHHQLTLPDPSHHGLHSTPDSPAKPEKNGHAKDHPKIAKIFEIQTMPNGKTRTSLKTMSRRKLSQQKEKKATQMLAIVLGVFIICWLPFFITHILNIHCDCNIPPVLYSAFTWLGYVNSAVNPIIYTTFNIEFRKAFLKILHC
Sequence of Epidermal growth factor receptor (Homo sapiens, UniProt P00533, C797S/L858R/T790M) (P00533 25-1210 T790M/C797S/L858R limits assumed): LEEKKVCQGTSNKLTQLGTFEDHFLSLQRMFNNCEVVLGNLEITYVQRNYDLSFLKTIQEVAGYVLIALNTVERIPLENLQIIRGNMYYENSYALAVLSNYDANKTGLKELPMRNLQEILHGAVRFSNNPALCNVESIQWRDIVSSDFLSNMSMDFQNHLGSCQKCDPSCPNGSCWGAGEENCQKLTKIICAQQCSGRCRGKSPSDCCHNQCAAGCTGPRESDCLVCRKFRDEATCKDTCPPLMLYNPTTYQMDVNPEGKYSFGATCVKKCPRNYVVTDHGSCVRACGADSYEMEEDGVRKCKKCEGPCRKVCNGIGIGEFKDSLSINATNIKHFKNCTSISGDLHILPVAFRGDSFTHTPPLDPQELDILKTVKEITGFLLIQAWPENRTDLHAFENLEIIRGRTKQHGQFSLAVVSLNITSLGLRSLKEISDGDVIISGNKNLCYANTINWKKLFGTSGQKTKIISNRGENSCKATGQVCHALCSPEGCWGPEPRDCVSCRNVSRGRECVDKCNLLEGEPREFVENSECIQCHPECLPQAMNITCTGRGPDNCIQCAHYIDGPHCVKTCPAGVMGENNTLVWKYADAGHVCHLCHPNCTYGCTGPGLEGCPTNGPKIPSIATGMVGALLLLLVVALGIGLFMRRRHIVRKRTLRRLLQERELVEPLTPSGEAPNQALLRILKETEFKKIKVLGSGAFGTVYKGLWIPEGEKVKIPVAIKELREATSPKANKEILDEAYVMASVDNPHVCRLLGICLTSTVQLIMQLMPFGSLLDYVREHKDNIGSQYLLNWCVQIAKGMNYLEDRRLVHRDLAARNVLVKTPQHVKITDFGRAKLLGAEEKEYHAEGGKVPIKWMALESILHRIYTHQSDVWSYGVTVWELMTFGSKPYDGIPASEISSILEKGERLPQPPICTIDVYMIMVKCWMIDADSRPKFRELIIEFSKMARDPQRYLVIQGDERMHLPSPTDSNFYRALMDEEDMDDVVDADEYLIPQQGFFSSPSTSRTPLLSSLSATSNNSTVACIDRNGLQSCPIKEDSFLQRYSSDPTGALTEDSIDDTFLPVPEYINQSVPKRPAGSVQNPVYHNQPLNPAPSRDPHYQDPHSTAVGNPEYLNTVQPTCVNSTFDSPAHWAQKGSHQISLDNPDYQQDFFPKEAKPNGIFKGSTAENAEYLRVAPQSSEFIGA
Sequence of Epidermal growth factor receptor (Homo sapiens, UniProt P00533, C797S/L858R) (P00533 25-1210 C797S/L858R limits assumed): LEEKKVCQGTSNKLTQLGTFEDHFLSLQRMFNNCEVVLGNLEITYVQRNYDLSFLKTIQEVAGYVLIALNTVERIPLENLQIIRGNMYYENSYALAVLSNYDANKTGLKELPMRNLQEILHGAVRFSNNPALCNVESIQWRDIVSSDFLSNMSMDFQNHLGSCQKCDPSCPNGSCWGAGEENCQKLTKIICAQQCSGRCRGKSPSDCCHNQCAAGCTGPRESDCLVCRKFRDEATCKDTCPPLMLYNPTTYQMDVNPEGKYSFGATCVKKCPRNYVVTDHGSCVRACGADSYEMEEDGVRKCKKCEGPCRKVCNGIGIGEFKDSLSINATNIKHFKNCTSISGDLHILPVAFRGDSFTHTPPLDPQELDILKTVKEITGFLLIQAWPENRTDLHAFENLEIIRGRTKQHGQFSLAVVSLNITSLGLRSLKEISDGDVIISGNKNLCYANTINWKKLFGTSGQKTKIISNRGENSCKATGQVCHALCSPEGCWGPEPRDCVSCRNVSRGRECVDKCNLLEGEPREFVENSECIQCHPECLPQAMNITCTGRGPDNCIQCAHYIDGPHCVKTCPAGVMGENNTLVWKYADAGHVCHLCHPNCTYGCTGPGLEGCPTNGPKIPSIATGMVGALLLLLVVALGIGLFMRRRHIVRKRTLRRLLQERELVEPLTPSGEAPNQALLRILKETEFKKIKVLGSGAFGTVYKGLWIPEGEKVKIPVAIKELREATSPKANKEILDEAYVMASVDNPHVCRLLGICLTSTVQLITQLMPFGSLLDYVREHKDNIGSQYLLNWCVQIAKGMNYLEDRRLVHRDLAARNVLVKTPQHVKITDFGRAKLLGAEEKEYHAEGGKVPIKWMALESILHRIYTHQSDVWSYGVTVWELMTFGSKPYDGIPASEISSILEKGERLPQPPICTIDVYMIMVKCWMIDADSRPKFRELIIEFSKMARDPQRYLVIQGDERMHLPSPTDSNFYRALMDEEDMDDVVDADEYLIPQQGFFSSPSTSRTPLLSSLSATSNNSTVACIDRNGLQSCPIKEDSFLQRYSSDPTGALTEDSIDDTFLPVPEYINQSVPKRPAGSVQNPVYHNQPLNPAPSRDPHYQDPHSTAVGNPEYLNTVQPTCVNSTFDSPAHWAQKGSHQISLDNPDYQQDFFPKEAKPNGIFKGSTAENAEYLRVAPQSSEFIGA

**Q.** For `Cc1c(C#Cc2ccc(CN3CCC(CO)CC3)cc2)cc(C(F)F)c2cn(C(C(=O)Nc3nccs3)c3ncn4c3CCC43CC3)nc12` (stereo not drawn), which inhibition in vivo at 10 mg/kg (NCI-H1975) is on record?
**A.** 69%

**Q.** What about the IC50 [1] of the same molecule?
**A.** 2 nM

**Q.** And the inhibition (D(2) dopamine receptor)?
**A.** 98%

**Q.** What about the IC50 [2] of the same molecule?
**A.** 20 nM

**Q.** What about the Activity [3] of the same molecule?
**A.** Non-Toxic

**Q.** And the inhibition [4]?
**A.** 94%

**Q.** And the bioavailability [5]?
**A.** 22%

**Q.** And the GI50 (SU-DHL-6)?
**A.** 1460 nM

**Q.** What about the AUC(0-t) at 24 h [6] of the same molecule?
**A.** 803 ng·h/mL

**Q.** And the half-life [7]?
**A.** 6.6 h

**Q.** What about the Cmax [8] of the same molecule?
**A.** 135 ng/mL

**Q.** What about the inhibition in vivo at 10 mg/kg (BaF3) of the same molecule?
**A.** 84%

**Q.** What about the AUC(0-inf) [9] of the same molecule?
**A.** 871 ng·h/mL
